± gives the standard deviation of the averaged measurements.
Experiments:
Assay in all cases: relative viability vs DMSO control (72 h) (fraction); higher = more viable cells
[1] = system: G401
Procedure, shortened: (§1)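 Sarcoma cell lines in 384-well plates, seeded to reach 80–90% confluence, were given compound after 24 h and kept 72 h at 37 °C, 5% CO2, with 0.1% DMSO vehicle and a 5 µM positive control. Relative viability came from ATPLite as percent growth, averaged over up to triplicate wells. On the rescaled values, 1 equals full and 0 equals none.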

[2] = system: HS729
Procedure, shortened: as §1

[3] = system: SYO-1
Procedure, shortened: as §1

[4] = system: SW872
Procedure, shortened: as §1

[5] = system: VA-ES-BJ
Procedure, shortened: as §1

[6] = system: A204
Procedure, shortened: as §1

[7] = system: SK-ES-1
Procedure, shortened: as §1

[8] = system: SK-LMS-1
Procedure, shortened: as §1

[9] = system: SW684
Procedure, shortened: as §1

[10] = system: MES-SA
Procedure, shortened: as §1

[11] = system: RD
Procedure, shortened: as §1

[12] = system: KHOS-NP
Procedure, shortened: as §1

COc1cc(Nc2ncc(F)c(Nc3ccc4c(n3)N(COP(=O)(O)O)C(=O)C(C)(C)O4)n2)cc(OC)c1OC [Fostamatinib]
Details | relative viability
[1], 0.00017 µM | 0.9887 ± 0.008
[1], 0.00051 µM | 1.01 ± 0.031
[1], 0.00152 µM | 1.03 ± 0.033
[1], 0.00457 µM | 1.07 ± 0.049
[1], 0.01372 µM | 1.004 ± 0.0072
[1], 0.04115 µM | 1.05 ± 0.051
[1], 0.1235 µM | 0.986 ± 0.031
[1], 0.3704 µM | 0.962 ± 0.034
[1], 1.111 µM | 0.75 ± 0.054
[1], 3.333 µM | 0.212 ± 0.014
[1], 10 µM | 0.0346 ± 0.0027
[2], 0.00017 µM | 0.913 ± 0.037
[2], 0.00051 µM | 0.952 ± 0.011
[2], 0.00152 µM | 0.938 ± 0.066
[2], 0.00457 µM | 0.961 ± 0.039
[2], 0.01372 µM | 0.982 ± 0.043
[2], 0.04115 µM | 0.914 ± 0.042
[2], 0.1235 µM | 0.845 ± 0.051
[2], 0.3704 µM | 0.724 ± 0.037
[2], 1.111 µM | 0.726 ± 0.0082
[2], 3.333 µM | 0.519 ± 0.013
[2], 10 µM | 0.586 ± 0.015
[3], 0.00017 µM | 0.964 ± 0.042
[3], 0.00051 µM | 0.953 ± 0.042
[3], 0.00152 µM | 0.969 ± 0.043
[3], 0.00457 µM | 0.958 ± 0.023
[3], 0.01372 µM | 0.966 ± 0.025
[3], 0.04115 µM | 0.922 ± 0.034
[3], 0.1235 µM | 0.912 ± 0.071
[3], 0.3704 µM | 0.656 ± 0.026
[3], 1.111 µM | 0.379 ± 0.013
[3], 3.333 µM | 0.22 ± 0.02
[3], 10 µM | 0.167 ± 0.012
[4], 0.00017 µM | 1.09 ± 0.068
[4], 0.00051 µM | 1.07 ± 0.042
[4], 0.00152 µM | 1.08 ± 0.066
[4], 0.00457 µM | 1.09 ± 0.06
[4], 0.01372 µM | 1.08 ± 0.063
[4], 0.04115 µM | 1.05 ± 0.044
[4], 0.1235 µM | 0.977 ± 0.013
[4], 0.3704 µM | 0.795 ± 0.031
[4], 1.111 µM | 0.617 ± 0.025
[4], 3.333 µM | 0.267 ± 0.038
[4], 10 µM | 0.202 ± 0.0044
[5], 0.00017 µM | 1.05 ± 0.045
[5], 0.00051 µM | 1.06 ± 0.037
[5], 0.00152 µM | 1.06 ± 0.012
[5], 0.00457 µM | 1.04 ± 0.027
[5], 0.01372 µM | 1.04 ± 0.021
[5], 0.04115 µM | 1.06 ± 0.043
[5], 0.1235 µM | 1.01 ± 0.026
[5], 0.3704 µM | 0.888 ± 0.04
[5], 1.111 µM | 0.727 ± 0.18
[5], 3.333 µM | 0.366 ± 0.0078
[5], 10 µM | 0.164 ± 0.025
[6], 0.00017 µM | 1.07 ± 0.012
[6], 0.00051 µM | 1.08 ± 0.044
[6], 0.00152 µM | 1.07 ± 0.033
[6], 0.00457 µM | 1.07 ± 0.051
[6], 0.01372 µM | 1.07 ± 0.048
[6], 0.04115 µM | 1.02 ± 0.021
[6], 0.1235 µM | 0.954 ± 0.018
[6], 0.3704 µM | 0.763 ± 0.022
[6], 1.111 µM | 0.494 ± 0.048
[6], 3.333 µM | 0.236 ± 0.027
[6], 10 µM | 0.07 ± 0.0078
[7], 0.00017 µM | 1.01 ± 0.042
[7], 0.00051 µM | 1.04 ± 0.0074
[7], 0.00152 µM | 1.03 ± 0.029
[7], 0.00457 µM | 1.049 ± 0.0092
[7], 0.01372 µM | 1.01 ± 0.046
[7], 0.04115 µM | 0.986 ± 0.035
[7], 0.1235 µM | 0.813 ± 0.058
[7], 0.3704 µM | 0.602 ± 0.022
[7], 1.111 µM | 0.831
[7], 3.333 µM | 0.292 ± 0.014
[7], 10 µM | 0.0769 ± 0.00062
[8], 0.00017 µM | 1.06 ± 0.037
[8], 0.00051 µM | 1.03 ± 0.015
[8], 0.00152 µM | 1.05 ± 0.019
[8], 0.00457 µM | 1.05 ± 0.02
[8], 0.01372 µM | 1.03 ± 0.046
[8], 0.04115 µM | 1.029 ± 0.008
[8], 0.1235 µM | 0.897 ± 0.042
[8], 0.3704 µM | 0.819 ± 0.016
[8], 1.111 µM | 0.769 ± 0.045
[8], 3.333 µM | 0.618 ± 0.027
[8], 10 µM | 0.403 ± 0.024
[9], 0.00017 µM | 1.14 ± 0.049
[9], 0.00051 µM | 1.17 ± 0.014
[9], 0.00152 µM | 1.15 ± 0.028
[9], 0.00457 µM | 1.17 ± 0.12
[9], 0.01372 µM | 1.13 ± 0.055
[9], 0.04115 µM | 1.18 ± 0.08
[9], 0.1235 µM | 1.09 ± 0.025
[9], 0.3704 µM | 1.03 ± 0.045
[9], 1.111 µM | 0.877 ± 0.059
[9], 3.333 µM | 0.618 ± 0.027
[9], 10 µM | 0.481 ± 0.021
[10], 0.00017 µM | 0.904 ± 0.011
[10], 0.00051 µM | 0.94 ± 0.062
[10], 0.00152 µM | 0.932 ± 0.015
[10], 0.00457 µM | 0.921 ± 0.039
[10], 0.01372 µM | 0.943 ± 0.033
[10], 0.04115 µM | 0.931 ± 0.035
[10], 0.1235 µM | 0.853 ± 0.043
[10], 0.3704 µM | 0.768 ± 0.03
[10], 1.111 µM | 0.861 ± 0.03
[10], 3.333 µM | 0.332 ± 0.019
[10], 10 µM | 0.043 ± 0.00086
[11], 0.00017 µM | 1.09 ± 0.017
[11], 0.00051 µM | 1.1 ± 0.03
[11], 0.00152 µM | 1.11 ± 0.069
[11], 0.00457 µM | 1.1 ± 0.014
[11], 0.01372 µM | 1.11 ± 0.048
[11], 0.04115 µM | 1.13 ± 0.066
[11], 0.1235 µM | 1.07 ± 0.054
[11], 0.3704 µM | 0.991 ± 0.04
[11], 1.111 µM | 0.96 ± 0.023
[11], 3.333 µM | 0.535 ± 0.011
[11], 10 µM | 0.457 ± 0.015
[12], 0.00017 µM | 1.09 ± 0.026
[12], 0.00051 µM | 1.08 ± 0.035
[12], 0.00152 µM | 1.1 ± 0.013
[12], 0.00457 µM | 1.091 ± 0.0094
[12], 0.01372 µM | 1.07 ± 0.033
[12], 0.04115 µM | 1.089 ± 0.0083
[12], 0.1235 µM | 1.09 ± 0.011
[12], 0.3704 µM | 1.05 ± 0.02
[12], 1.111 µM | 0.98 ± 0.04
[12], 3.333 µM | 0.64 ± 0.014
[12], 10 µM | 0.278 ± 0.021
